From US20070292351A1, “Assay for efficacy of histone deacetylase inhibitors” (Methylgene, Inc., priority 2006, published 2007)

How the values were obtained:
[1] = system: implanted human NSCLC H460 tumors; experiment: Semi-quantitative PCR of p21 and MT3 in H460 tumors in nude mice; assay type: in vivo, nude mice (Balb/c); settings: 100 mg/kg oral
Description: FIG. 5 Induction of MT3 and p21 in implanted human NSCLC H460 tumors in vivo in nude mice. Nude mice (Balb/c) bearing human H460 tumors were treated with 100 mg/kg MGCD0103 or 0.5% HEC (Vehicle) by oral administration. After 6 h or 24 h, three mice from each group were sacrificed, their tumors harvested and analyzed. Panel A: p21 and MT3 RNA levels quantified by conventional semi-quantitative PCR, normalized to β-actin. Panel B: H4Ac level detected by immunoblot analysis, normalized to total histones.
(§1) RNA was extracted from 8×10^6 cells using the Qiagen RNeasy Mini kit (cat#74106, Qiagen, Missisauga Ont.) following the manufacturer's instructions. RT reaction was performed using the Expand Reverse Transcriptase kit from Roche (Cat#1 785 834 Roche Applied Biosciences, Laval, Que) with 1 μg total RNA together with 1 μl oligo(dT) primer (cat#y01212, Invitrogen-Canada, Burlington, Ont). cDNA was synthesized using an Eppendorf Mastercycler gradient PCR apparatus (Brinkmann Instruments Canada LTD., Mississauga, Ontario), using a two cycle protocol. For the 1st cycle reaction mixture (0.5 μl H2O, 4 μl of 5× Buffer, 2 μl DTT, 2 ul of 10 mM dNTPs, 0.5 μl RNAsin (cat#N211B, Promega, Fisher Scientific, Whitby, Ont.) and […] of the Expand Reverse Transcriptase (Cat#1785834, Roche, Laval, Quebec)) was incubated at 65° C. for 10 minutes and then set on ice. A second cycle was performed at 42° C. for 1 hour. The resulting cDNA products were kept at 4° C. until used.
(§2) One ul of the resulting cDNA was used for every amplification reaction with 18.9 ul H2O, 1.25 ul of 10 mM dNTPs, 0.5 ul of each primer pair, 2.5 ul of 10× Buffer. The PCR reaction was carried out in an Eppendorf Mastercycler gradient. The sequences of the primers used for the amplification of selected biomarkers, as well as the details of the PCR reaction cycles are featured below. All buffers came from Expand Long Template PCR system (Roche, Laval, Quebec, Cat#11681842001). All primers were synthesized by Invitrogen (Invitrogen-Canada, Burlington, Ont.) […]

human RPMI8226 cells = experiment: IL-6 transcription in RPMI8226 cells; assay type: cell-based; settings: 24 hours (FIG. 14)
Description: Quantitative PCR with SYBR Green I detection with Mastercycler® ep realplex (Eppendorf) was performed using LightCycler® 480 SYBR Green I Master (Roche Diagnostics). SYBR Green I assays were performed with 600 nM primers. All other reaction conditions were as described by the manufacturer. Amplification conditions were 5 minutes of initial denaturation at 95° C., followed by 40 cycles of each 15 seconds at 95° C., 15 seconds at 63.4° C., 20 seconds at 68° C., a melting curve from 60° C. to 95° C. was recorded. Quantification was performed using Pfaffl method, a relative quantification method in real-time PCR (Nucleic Acids Research 2001 29:2002-2007). Primers were synthesized by Invitrogen (Invitrogen-Canada, Burlington, Ont.).

RPMI-8226 myeloma cells = experiment: RT-PCR of MT3 transcription in RPMI-8226 cells; assay type: cell-based, human; settings: 16 h, semi-quantitative RT-PCR (FIG. 2)
Description: as §1
as §2, with “below.” for “below. All buffers came from Expand Long Template PCR system (Roche, Laval, Quebec, Cat#11681842001). All primers were synthesized by Invitrogen (Invitrogen-Canada, Burlington, Ont.)”

bone marrow blast count = experiment: Bone marrow blast count in AML patient; assay type: in vivo, human; settings: AML Patient A, 2 cycles of treatment (FIG. 10)
Description: FIG. 10. Reduction of bone marrow blast count in Patient A after 2 cycles of MGCD0103 treatment in vivo.
Human patients with either solid tumors or leukemia/MDS diseases were enrolled in phase I studies with consensus forms. MGCD0103 were dosed into patients orally every other day (day 1, day 3, day 5 […]). Blood samples were withdrawled by using the Vacutainer sodium-heparin blood collection tubes (Becton Dickinson Laboratories, Franklin Lakes, N.J.) and shipped to the test site within 24 hours on ice-pack. Baseline samples were drawn immediately prior to the first drug dose, while the 24 hour samples were drawn at 24 hours post the first drug dose. The 48 hours samples were drawn at 48 hours post the first dose. For the 1 week samples, blood was drawn 72 hours after day 5 dose (3 accumulated doses during week 1).

[2] = system: peripheral white blood cells from healthy volunteers; experiment: Semi-quantitative PCR of MT3 in peripheral white blood cells treated ex vivo; assay type: cell-based, human; settings: 24 hr or 48 hr (FIG. 6)
Description: Peripheral white blood cells were isolated from healthy volunteers and treated ex vivo with MGCD0103 at indicated doses for 24 hr or 48 hr. RNA was extracted to monitor MT3 mRNA level by conventional semi-quantitative PCR (normalized to β-actin).
Whole blood from either consenting healthy volunteers or consenting patients was centrifuged at 2500 rpm for 10 minutes at ambient temperature in a Sorvall RT-7 centrifuge (Mandel Scientific Co., Guelph, Ontario). Plasma was removed and buffy coat was collected. Five volumes of Erythrocyte Lysis Buffer (EL) (Qiagen Canada Inc., Mississauga, Ontario) were added into buffy coat. Buffy coat was incubated on ice for 20 minutes before it was centrifuged at 400 g for 10 minutes at 4° C. Supernatant was removed and buffy coat was washed twice with EL buffer and re-centrifuged. Buffy coat was resuspended in RPMI media and cells were counted with trypan blue exclusion. To isolate PBMCs, buffy coat cells were centrifuged over Lymphoprep (Axis-Shield, 1114544), and any remaining erythrocytes in the sample were lysed by treatment with EL lysis buffer (Qiagen, 79217). The cell pellets are washed and then re-suspended in RPMI containing 10% FBS.
RNA was extracted from 8×10^6 cells using the Qiagen RNeasy Mini kit (cat#74106, Qiagen, Missisauga Ont.) following the manufacturer's instructions. […]

Q: With `Nc1ccccc1NC(=O)c1ccc(CNc2nccc(-c3cccnc3)n2)cc1` [MGCD0103] as the molecule, how does the “persistence of gene induction (p21, MT3) in tumors” value [1] read?
A: at least 24 h

Q: And the “induction of MT3 RNA in tumors” value ([1]; 6 h or 24 h (FIG. 5A))?
A: induction

Q: And the “induction of p21 RNA in tumors” value ([1]; 6 h or 24 h (FIG. 5A))?
A: induction

Q: And the “dose-dependent induction of IL-6 transcription” value (human RPMI8226 cells)?
A: dose-dependent induction

Q: And the “Dose-dependent induction of MT3 transcription” value (RPMI-8226 myeloma cells)?
A: Dose-dependent induction

Q: And the “bone marrow blast count” value (bone marrow blast count)?
A: reduction

Q: And the “Induction of MT3 transcription ex vivo” value [2]?
A: time-dependent and dose-dependent
